Measurements taken from paper PMC10535268, “Design, Synthesis, and Evaluation of Novel Indole Hybrid Chalcones and Their Antiproliferative and Antioxidant Activity” (Molecules, 2023).

Assays:
[1] = Ferric reducing antioxidant power (FRAP); details: sample 1 mM, 30 min, gallic acid equivalents, mean (±SD), triplicate
Source text: (§1) Table 3 Antioxidant activity.

[2] = system: MCF-7; experiment: MTT antiproliferative assay, MCF-7; format: cell-based, human; details: MCF-7, 72 h incubation, mean ± SD of three independent experiments
[3] = system: MDA-MB-231; experiment: MTT antiproliferative assay, MDA-MB-231; format: cell-based, human; details: MDA-MB-231, 72 h incubation, mean ± SD of three independent experiments
[4] = system: breast cancer cells; details: flow cytometry, Western blot, fluorescence microscopy; cited from earlier work
[5] = ABTS radical scavenging activity; details: sample 1 mM, 30 min, gallic acid equivalents, mean (±SD), triplicate
Source text: as §1

[6] = system: MCF-10A; experiment: MTT cytotoxicity assay, non-cancer MCF-10A; format: cell-based, human; details: 72 h incubation, mean ± SD of three independent experiments
[7] = system: Hela; experiment: MTT antiproliferative assay, HeLa; format: cell-based, human; details: 72 h incubation, mean ± SD of three independent experiments
Method: Table 2 IC50 (μM) ± SD of tested compounds in different cell lines after 72 h incubation. | column: Cell Line, IC50 (µM) ± SD / Hela

[8] = system: Jurkat; experiment: MTT antiproliferative assay, Jurkat; format: cell-based, human; details: 72 h incubation, mean ± SD of three independent experiments
[9] = DPPH radical scavenging activity; details: sample 1 mM, 30 min, gallic acid equivalents, mean (±SD), triplicate
[10] = system: HCT116; experiment: MTT antiproliferative assay, HCT116; format: cell-based, human; details: HCT116, 72 h incubation, mean ± SD of three independent experiments
[11] = system: normal human liver cell line (L02); design: method as in Lagu et al. 19; details: ref Lagu et al. 19; cited from earlier work
[12] = system: Bj-5ta; experiment: MTT cytotoxicity assay, non-cancer Bj-5ta; format: cell-based, human; details: 72 h incubation, mean ± SD of three independent experiments; for IC50: Homo sapiens
[13] = design: method as in Lagu et al. 19; details: compared to standard drugs; ref Lagu et al. 19; cited from earlier work

Compound | FRAP [1] | ABTS [5] | DPPH [9] | IC50 [10] | IC50 [12] | melting point | IC50 ([2]; Homo sapiens, MCF7, 72 h) | IC50 ([3]; Homo sapiens) | IC50 ([6]; Homo sapiens, MCF-10A, 72 h) | IC50 ([7]; Homo sapiens, HeLa, 72 h) | IC50 ([8]; Homo sapiens) | IC50 ([10]; Homo sapiens, HCT-116, 72 h) | other results
CCCOc1[nH]c2ccccc2c1/C=C/C(=O)c1ccccc1F [11f, (2E)-1-(2″-Fluorophenyl)-3-(2′-propoxy-1′H-indol-3′-yl)prop-2-en-1-one] | 183.5 (±0.9) µmol GAE/mmol | 175.1 (±10.4) µmol GAE/mmol | 227.3 (±11.0) µmol GAE/mmol | 34.4 ± 1.1 µM |  |  |  |  |  |  |  |  | IC50 [2]: 37.3 ± 1.5 µM; IC50 [3]: 34 ± 3 µM; mode of cell death [4]: induce cell cycle arrest in the G2/M phase and apoptosis; IC50 [6]: > 100 µM; IC50 (µM) ± SD, MCF-10A [6]: minimal effect; IC50 [7]: 45.3 ± 0.7 µM; IC50 [8]: 37.7 ± 1.1 µM
O=C(/C=C/c1c[nH]c2ccccc12)c1ccc(C(F)(F)F)cc1 [12a, (2E)-3-(1H-indol-3-yl)-1-(4-trifluoromethylphenyl) prop-2-en-1-one] |  |  |  |  | > 100 µM | 195 to 197 °C | 43.4 µM | > 100 µM | > 100 µM | 68.1 ± 3.3 µM | > 100 µM | 59.1 ± 1.1 µM | cytotoxicity on normal human liver cell line (L02) [11]: without showing cytotoxicity; IC50 [2]: 43.3 ± 0.6 µM; antimicrobial activity [13]: greatest antimicrobial activity
Cn1cc(/C=C/C(=O)c2ccccc2O)c2ccccc21 [13b, (2E)-1-(2-hydroxyphenyl)-3-(1-methyl-1H-indol-3-yl)prop-2-en-1-one] | 41.2 (±0.7) µmol GAE/mmol | 116.8 (±5.8) µmol GAE/mmol | 7.6 (±3.8) µmol GAE/mmol |  | > 100 µM | 205 to 207 °C | 29.7 ± 2.3 µM | 82 ± 3.2 µM | > 100 µM | 42.8 ± 2.5 µM | > 100 µM | 34.7 ± 0.2 µM | 
COn1cc(/C=C/C(=O)c2ccccc2O)c2ccccc21 [13c, (2E)-1-(2-hydroxyphenyl)-3-(1-methoxy-1H-indol-3-yl)prop-2-en-1-one] | 43.4 (±1.8) µmol GAE/mmol | 214.6 (±28.4) µmol GAE/mmol | 30.3 (±15.4) µmol GAE/mmol |  | > 100 µM | 139 to 140 °C | 53.4 ± 2.5 µM | > 100 µM | > 100 µM | 73.9 ± 3.4 µM | 42 ± 1.8 µM | 54 ± 2.2 µM | 
O=C(/C=C/c1c[nH]c2ccccc12)c1ccc(O)cc1 [14a, (2E)-1-(4-hydroxyphenyl)-3-(1H-indol-3-yl)prop-2-en-1-one] | 105.5 (±3.4) µmol GAE/mmol | 194.8 (±21.4) µmol GAE/mmol | 12.3 (±2.3) µmol GAE/mmol |  | 61 ± 0.6 µM | 218 °C | 42.2 ± 0.7 µM | 66 ± 2.5 µM | 51.5 ± 1.7 µM | 39.9 ± 2.6 µM | 33.9 ± 2.5 µM | 36.8 ± 0.5 µM | 
Cn1cc(/C=C/C(=O)c2ccc(O)cc2)c2ccccc21 [14b, (2E)-1-(4-hydroxyphenyl)-3-(1-methyl-1H-indol-3-yl)prop-2-en-1-one] | 114.3 (±4.2) µmol GAE/mmol | 84.6 (±2.7) µmol GAE/mmol | 7.3 (±3.1) µmol GAE/mmol |  | > 100 µM | 244 °C | 82.3 ± 1.8 µM | > 100 µM | 54 ± 2.1 µM | 93 ± 2.6 µM | > 100 µM | 49.3 ± 1.3 µM | 
COn1cc(/C=C/C(=O)c2ccc(O)cc2)c2ccccc21 [14c, (2E)-1-(4-hydroxyphenyl)-3-(1-methoxy-1H-indol-3-yl)prop-2-en-1-one] | 42.0 (±2.0) µmol GAE/mmol | 75.9 (±5.3) µmol GAE/mmol | 21.1 (±5.8) µmol GAE/mmol |  | 76.4 ± 1.7 µM | 182 to 184 °C | 52.7 ± 2.6 µM | 82.2 ± 3.1 µM | 59 ± 0.2 µM | 34.6 ± 0.3 µM | 7.3 ± 0.1 µM | 34.5 ± 0.7 µM | 
COn1cc(C(=O)/C=C/c2ccc(O)c(O)c2)c2ccccc21 [18c, (2E)-3-(3,4-dihydroxyphenyl)-1-(1-methoxy-1H-indol-3-yl)prop-2-en-1-one] | 432.0 (±21.4) µmol GAE/mmol | 298.1 (±21.0) µmol GAE/mmol | 551.1 (±14.9) µmol GAE/mmol | 18.2 ± 2.9 µM | > 100 µM | 206 to 209 °C | > 100 µM | > 100 µM | > 100 µM | > 100 µM | 8 ± 1.4 µM | 18.5 µM | IC50 (µM) ± SD, Bj-5ta [12]: no toxicity; IC50 (µM) ± SD, MCF-10A [6]: no toxicity
COc1cc(/C=C/C(=O)c2c[nH]c3ccccc23)ccc1O [19a, (2E)-3-(4-hydroxy-3-methoxyphenyl)-1-(1H-indol-3-yl)prop-2-en-1-one] | 307.2 (±11.9) µmol GAE/mmol | 564.7 (±74.5) µmol GAE/mmol | 223.5 (±11.2) µmol GAE/mmol | 35.3 ± 0.6 µM | 66.6 ± 0.1 µM | 200 to 203 °C | 43.1 ± 1.6 µM | 45.3 ± 0.5 µM | 24.7 ± 2.8 µM | 25.5 ± 1.6 µM | 34 ± 0.3 µM | 62.7 ± 2.9 µM | IC50 [6]: 40.2 ± 1.2 µM; IC50 [7]: 41.4 ± 2.5 µM
